The subject of assay [1] is Onchocerca ochengi adult male worms. Nature of the assay: O. ochengi adult male worm motility assay, primary and secondary screens. It is filed as cell-based. As for the experimental part: (§1) The isolation of O. ochengi adult worms was performed as described previously by Cho-Ngwa et al.. Briefly, fresh pieces of umbilical cattle skin with palpable nodules bought from butchery in Douala, Cameroon were washed, drained and sterilized with 70% ethanol. The worms were carefully scraped out of the nodules as single masses and temporarily submerged in 1 mL complete culture medium, CCM [RPMI-1640 (Sigma-Aldrich, St. Louis, MO, USA) supplemented with 25 mM HEPES, 2 g/L sodium bicarbonate, 2 mM L-glutamine, 5% newborn calf serum (SIGMA, St. Louis, MO, USA), 150 units/mL penicillin, 150 µg/mL streptomycin and 0.5 µg/mL amphotericin B (SIGMA, St. Louis, MO, USA), pH 7.4)] using 24-well plates. The adult worms were incubated in the culture medium overnight in a CO2 incubator, during which period the male worms migrated out of the nodular masses. Only wells containing viable worms received treatment with test compounds. Damaged worms and worms from putrefied nodules were discarded. The viability of worms retained for the assay was ascertained by visual and microscopic examination of adult male worm motility using an inverted microscope.
(§2) The compounds were tested on […] at a single concentration of 30 μM, in duplicate wells. […] The female worms were removed and incubated in 500 μL of 0.5 μg/mL MTT for the last 30 min of incubation. Inhibition of formazan formation from MTT directly correlates with worm death. The worms were blotted on absorbent paper and observed visually for blue coloration against a white background. […] Auranofin at 10 μM, which had previously shown activity against O. ochengi adult worms and Mf, was used as a positive control, while negative control wells received the diluent, 2% DMSO only, previously shown to have no effect on parasite viability. The solvent DMSO (2%) was used as a negative control. […] Furthermore, the toxicity of DMSO decreases with dilution.
Adult male worm motility was evaluated with the aid of an inverted microscope.
(§3) The pure compounds with 100% activity at primary screens were re-tested as described under primary screens, in order to determine the IC50 values. The IC50 assays were performed in triplicate and each experiment repeated for confirmation. The means of all activities at a concentration were calculated and used in the statistical analyses. GraphPadPrism version 6.0 (GraphPad Software, San Diego, CA, USA) was used to generate dose response curves from which the IC50 values were obtained.

Assay [2] has the same test system. The assay is described as above. It is filed as cell-based. Particulars: primary screen, 30 μM.
For assay [3], the system named is Onchocerca ochengi microfilariae. Put plainly: O. ochengi microfilariae (Mf) motility assay, primary and secondary screens. The assay is classed as cell-based. On the procedure: Briefly, Mf were prepared using the method described by Cho-Ngwa et al., with slight modifications. A few skin snips were obtained from different locations and incubated in aliquots of culture medium for 15 min, after which the emergent Mf were qualified and quantified using an inverted microscope and standard atlases. The leftover pieces of skin were shaved, rinsed, sterilized with 70% ethanol and sliced into thin slivers. The slivers were incubated in CCM for 2 h, and the emergent highly motile O. ochengi Mf were concentrated by centrifugation. The Mf were transferred to 96-well micro titer plates (15 Mf/100 μL/well) containing a fully confluent LLC-MK2 cell layer in 100 μL of CCM. This was monitored for viability and sterility for 24 h before addition of test and control compounds.
The biological assays were conducted in duplicate in the 96-well microtiter plates. The Mf were incubated with the drug for 120 h in a total of 200 μL of medium. Mf viability was assessed by microscopy once every day and motility inhibition scores were recorded. […] Motility inhibition correlates to drug activity. The positive control drug was amorcazine at 30 μM, and negative control was the diluent (DMSO).
Compounds showing 100% activity in the primary screens were re-tested as described under primary screens to determine the IC50 values. All assays were repeated at least once. The selectivity index (SI) of each extract was calculated as the ratio of the IC50 of the extract on the mammalian cell (termed CC50) to the IC50 on parasites.

Assay [4] concerns Onchocerca ochengi adult female worms. Put plainly: O. ochengi adult female worm viability, MTT/formazan assay. The assay is classed as cell-based. As for the experimental part: as §1, §2, §3
In assay [5] the test system is Monkey kidney epithelial cells (LLC-MK2). Nature of the assay: Cytotoxicity on monkey kidney epithelial cells, microscopic. It is filed as cell-based. Particulars: cytotoxicity, day 5, estimated from morphological deformation; read-out: IC50 Monkey Kidney Cells (LLC-MK2). As for the experimental part: Monkey kidney epithelial cells (LLC-MK2) (ATCC, Manassas, VA, USA) were cultured at 37 °C in humidified air with 5% CO2 in a Hera Cell-150 incubator (Thermo Electron, Karlsruhe, Germany) until the cell layer was almost confluent. The cell suspension was dispensed into 96-well micro titer plates (200 µL/well) and kept in the incubator for 3–5 days for cells to grow and become fully confluent. These cells served as feeder layers for the Mf assays and were also used for cytotoxicity studies.
Cytotoxicity of the pure compounds with anti-onchocercal activities was assessed on LLC-MK2 cells, microscopically, on day 5 of the Mf assay. Living cells were flattened out and attached to the culture plate, while dead cells were rounded up and detached from the plate. The IC50 values for these cells were estimated from the morphological deformation data.

For assay [6], the system named is Onchocerca ochengi. Also noted: method as in earlier work. Particulars: from stem bark of V. africana; cited from earlier work.

Usually IC50 stands for the concentration that gives 50% inhibition. On to voacamine [Compound 7], for which, in assay [1] (dose-dependent manner), the “effect on motility of adult male worms (in words)” value is given as “inhibit the motility”. The “IC100 Adult Male Worm” value in assay [1] (secondary screen) was 10 µM. The IC50 in assay [1] (secondary screen, motility, read-out: IC50 Adult Male Worm) was 3.45 µM; in assay [3] (secondary screen, motility, read-out: IC50 Mf) it was 2.49 µM; in assay [5] it was no less than 30 µM. Further, the “% Adult Male Worm Motility Reduction after 24 h” value in assay [2] came to 100%. For the same substance, the “effect on motility of microfilariae (in words)” value in assay [3] (dose-dependent manner) is on record as “inhibit the motility”. Also, the “% Mf Motility Reduction after 24 h” value in assay [3] (primary screen, 30 μM) is reported as 100%. The “IC100 Mf” value in assay [3] (secondary screen) is 10 µM. Also, the “activity on adult female worms (in words)” value in assay [4] (biochemical assessment at 30 μM) is on record as “moderately active”. In assay [4] (primary screen, 30 μM, corresponds to % inhibition of formazan formation), the “% Adult Female Worm Death after 120 h” value turned out to be 65%. For the same substance, the “IC100 Adult Female Worm” value in assay [4] (secondary screen) is greater than 30 µM. Moreover, the “activity against Onchocerca ochengi (in words)” value in assay [6] is “showing activity”.
